From ChEMBL document CHEMBL4665660, “A novel indirubin derivative that increases somatic cell plasticity and inhibits tumorigenicity” (Bioorg Med Chem, 2019)
Blank lines part the entries; values can stand above or below the molecule they belong to. Calls of active or inactive are those of the source. No cut-off for these calls is given here.

Tests used:
MDA-MB-231 [1] = assay: Antimetastatic activity in human MDA-MB-231 cells xenografted in zebra fish at 10 uM incubated for 96 hrs by fluorescence microscopy; type: functional, cell-based
HCT-116 [2] = assay: Induction of apoptosis in human HCT-116 cells assessed as cleaved caspase-7 at 500 nM incubated for 72 hrs by Western blot assay (reference value: 0); type: functional
C2C12 [3] = assay: Induction of cell cycle arrest in mouse C2C12 cells assessed as G2/M phase at 1 uM incubated for 72 hrs by propidium iodide based flow cytometry (reference value: 19.3 %); type: functional
MDA-MB-231 [4] = assay: Inhibition of cell invasion in human MDA-MB-231 cells at 50 nM incubated for 72 hrs by crystal violet staining based assay; type: functional
MDA-MB-231 [5] = assay: Cytotoxicity against human MDA-MB-231 cells assessed as reduction in cell viability incubated for 72 hrs by MTT assay; type: functional, cell-based; details: MDA-MB-231, 72 h
C2C12 (Mus musculus) [6] = assay: Induction of cellularization in mouse C2C12 myotube assessed as reduction in cell proliferation at 1 uM incubated for 72 hrs by EdU staining based inverted fluorescence microscopy
NIH3T3 [7] = assay: Adipogenic activity in mouse NIH/3T3 cells assessed as […] in epinephrine-stimulated fatty acid release at 1 uM preincubated for 72 hrs followed by incubation with adipogenic factors for 10 days by colorimetric assay; type: functional, cell-based
MDA-MB-231 [8] = assay: Induction of apoptosis in human MDA-MB-231 cells assessed as cleaved caspase-7 at 500 nM incubated for 72 hrs by Western blot assay (reference value: 0.349); type: functional
C2C12 [9] = assay: Osteogenic activity in mouse C2C12 cells assessed as increase in mineralization at 1 uM preincubated for 72 hrs followed by incubation with osteogenic factor for 10 days; type: functional, cell-based; details: time 13.0 day
C2C12 [10] = assay: Osteogenic activity in mouse C2C12 cells assessed as increase in osteoponin-expression at 1 uM preincubated for 72 hrs followed by incubation with osteogenic factor for 10 days by RT-PCR analysis; type: functional, cell-based; details: time 13.0 day
[11] = biological target: T1, Aurora kinase A (Homo sapiens) (UniProt O14965); assay: Inhibition of recombinant human N-terminal His-tagged Aurora A expressed in Sf21 cells using peptide substrate by TR-FRET assay
T1 sequence (whole entry): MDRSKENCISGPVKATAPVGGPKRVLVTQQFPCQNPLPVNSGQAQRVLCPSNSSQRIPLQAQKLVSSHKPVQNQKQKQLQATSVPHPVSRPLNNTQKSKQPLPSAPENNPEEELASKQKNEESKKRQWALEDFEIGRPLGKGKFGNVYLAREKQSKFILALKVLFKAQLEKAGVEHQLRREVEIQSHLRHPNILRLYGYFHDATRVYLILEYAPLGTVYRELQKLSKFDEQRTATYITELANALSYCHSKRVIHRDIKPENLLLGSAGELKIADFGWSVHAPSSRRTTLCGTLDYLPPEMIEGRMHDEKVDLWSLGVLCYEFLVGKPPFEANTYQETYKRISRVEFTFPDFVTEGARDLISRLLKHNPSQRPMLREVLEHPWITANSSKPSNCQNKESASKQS

NIH3T3 [12] = assay: Downregulation of alpha-SMA in mouse NIH-3T3 cells at 1 uM incubated for 72 hrs by Western blotting assay; type: functional, cell-based
HCT-116 [13] = assay: Induction of apoptosis in human HCT-116 cells assessed as cleaved PARP at 500 nM incubated for 72 hrs by Western blot assay (reference value: 1.127); type: functional
C2C12 [14] = assay: Induction of cell cycle arrest in mouse C2C12 cells assessed as G1 phase at 1 uM incubated for 72 hrs by propidium iodide based flow cytometry (reference value: 61.2 %); type: functional
NIH3T3 [15] = assay: Adipogenic activity in mouse NIH/3T3 cells assessed as increase in lipid accumulation at 1 uM preincubated for 72 hrs followed by incubation with adipogenic factors for 10 days by Oil red O staining based light microscopy; type: functional, cell-based; details: time 13.0 day
C2C12 [16] = assay: Osteogenic activity in mouse C2C12 cells assessed as increase in plasticity at 1 uM preincubated for 72 hrs followed by incubation with osteogenic factor for 10 days by Alizarin red staining based light microscopy; type: functional, cell-based; details: time 13.0 day
NIH3T3 [17] = assay: Adipogenic activity in mouse NIH/3T3 cells assessed as increase in insulin-stimulated glucose uptake at 1 uM preincubated for 72 hrs followed by incubation with adipogenic factors for 10 days by […] probe based fluorescence assay; type: functional, cell-based; details: time 13.0 day
[18] = biological target: Glycogen synthase kinase-3 beta (Homo sapiens) (UniProt P49841); assay: Inhibition of GSK3beta (unknown origin) using PASVPPSPSLSRHSSPHQpSED as substrate at 1 uM preincubated for 10 mins followed by substrate addition and measured after 30 mins by TR-FRET assay relative to control
Chain of Glycogen synthase kinase-3 beta (Homo sapiens) (P49841 whole entry, looked up): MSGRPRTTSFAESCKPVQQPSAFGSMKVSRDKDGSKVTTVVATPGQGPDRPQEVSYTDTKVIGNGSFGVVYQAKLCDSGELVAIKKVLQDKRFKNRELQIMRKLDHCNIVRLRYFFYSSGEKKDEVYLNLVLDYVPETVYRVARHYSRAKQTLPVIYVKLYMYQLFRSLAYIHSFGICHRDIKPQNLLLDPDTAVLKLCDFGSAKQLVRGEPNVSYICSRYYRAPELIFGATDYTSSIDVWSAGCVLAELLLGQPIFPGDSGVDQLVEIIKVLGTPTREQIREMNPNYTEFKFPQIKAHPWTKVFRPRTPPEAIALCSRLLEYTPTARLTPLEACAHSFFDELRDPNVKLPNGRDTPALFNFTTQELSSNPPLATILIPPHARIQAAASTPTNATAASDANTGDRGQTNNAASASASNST

MDA-MB-231 [19] = assay: Induction of apoptosis in human MDA-MB-231 cells assessed as cleaved PARP at 500 nM incubated for 72 hrs by Western blot assay (reference value: 0.519); type: functional
[20] = Toxicity in zebra fish embryo assessed as reduction in cell viability at 40 uM; set-up: species or system Danio rerio; details: zebrafish
[21] = biological target: T1, Aurora kinase A (Homo sapiens); assay: Inhibition of recombinant human N-terminal His-tagged Aurora A expressed in Sf21 cells using peptide substrate at 1 uM by TR-FRET assay relative to control
[22] = Induction of cellularization in human primary myotube assessed as beta-actin level at 1 uM incubated for 72 hrs by Western blot analysis (reference value: 1.095); type: tissue-based
C2C12 [23] = assay: Osteogenic activity in mouse C2C12 cells assessed as increase in alkaline phosphatase at 1 uM preincubated for 72 hrs followed by incubation with osteogenic factor for 10 days by fluorescence based assay; type: functional, cell-based; details: time 13.0 day
HCT-116 [24] = assay: Cytotoxicity against human HCT-116 cells assessed as reduction in cell viability incubated for 72 hrs by MTT assay; type: functional, cell-based; details: HCT-116, 72 h
C2C12 (Mus musculus) [25] = assay: Induction of cellularization in mouse C2C12 myotube at 1 uM incubated for 72 hrs by microscopic analysis
[26] = Toxicity in zebra fish embryo assessed as skeletal abnormalities at 20 to 40 uM; set-up: species or system Danio rerio; details: zebrafish, dose 20-40 µM
NIH3T3 [27] = assay: Downregulation of alpha-SMA in mouse NIH/3T3 cells at 1 uM incubated for 72 hrs by immunofluorescence microscopy; type: functional, cell-based
C2C12 [28] = assay: Induction of cell cycle arrest in mouse C2C12 cells assessed as S phase at 1 uM incubated for 72 hrs by propidium iodide based flow cytometry (reference value: 10.5 %); type: functional
[29] = biological target: Glycogen synthase kinase-3 beta (Homo sapiens) (UniProt P49841); assay: Inhibition of GSK3beta (unknown origin) using PASVPPSPSLSRHSSPHQpSED as substrate preincubated for 10 mins followed by substrate addition and measured after 30 mins by TR-FRET assay; details: time 40.0 mins
[30] = Toxicity in zebra fish embryo assessed as reduction in swimming ability at 20 to 40 uM; set-up: species or system Danio rerio; details: zebrafish, dose 20-40 µM
[31] = Induction of cellularization in human primary myotube assessed as alpha-tubulin level at 1 uM incubated for 72 hrs by Western blot analysis (reference value: 0.674); type: functional
[32] = Induction of cellularization in human primary myotube assessed as alpha-tubulin level at 20 uM incubated for 72 hrs by Western blot analysis (reference value: 0.674); type: functional
[33] = Induction of cellularization in human primary myotube assessed as beta-actin level at 20 uM incubated for 72 hrs by Western blot analysis (reference value: 1.095); type: tissue-based
[34] = Induction of cellularization in human primary myotube assessed as beta-actin level at 5 uM in presence of reversine incubated for 72 hrs by Western blot analysis (reference value: 1.095); type: tissue-based
[35] = Induction of cellularization in human primary myotube assessed as alpha-tubulin level at 5 uM in presence of reversine incubated for 72 hrs by Western blot analysis (reference value: 0.674); type: functional
[36] = Induction of cellularization in human primary myotube assessed as alpha-tubulin level at 100 nM in presence of BIO incubated for 72 hrs by Western blot analysis (reference value: 0.674); type: functional
[37] = Induction of cellularization in human primary myotube assessed as beta-actin level at 100 nM in presence of BIO incubated for 72 hrs by Western blot analysis (reference value: 1.095); type: tissue-based; details: 0.1 µM

inhibition [11]: Dose-dependent effect | inhibition [18]: 99.8% | inhibition [21]: 47.7% | fold change (FC) [22]: 1.451 | inhibition [29]: Dose-dependent effect
Compound: Cl.NCCO/N=C1/C(=C2/C(=O)Nc3ccc([N+](=O)[O-])cc32)Nc2ccc(O)cc21
Activity (MDA-MB-231 [1]): Active | fold change (FC) (HCT-116 [2]): 1.115 | Activity (C2C12 [3]): 35% | inhibition (MDA-MB-231 [4]): Active | IC50 (MDA-MB-231 [5]): 738 nM | Activity (C2C12 (Mus musculus) [6]): Active | Activity (NIH3T3 [7]): Active | fold change (FC) (MDA-MB-231 [8]): 0.674 | Activity (C2C12 [9]): Active | Activity (C2C12 [10]): Active | Activity (NIH3T3 [12]): Active | fold change (FC) (HCT-116 [13]): 1.129 | Activity (C2C12 [14]): 33.6% | Activity (NIH3T3 [15]): Active | Activity (C2C12 [16]): Active | Activity (NIH3T3 [17]): Active | fold change (FC) (MDA-MB-231 [19]): 1.962 | Activity [20]: Toxic | Activity (C2C12 [23]): Active | IC50 (HCT-116 [24]): 302 nM | Activity (C2C12 (Mus musculus) [25]): Active | Activity [26]: Toxic | Activity (NIH3T3 [27]): Active | Activity (C2C12 [28]): 18% | Activity [30]: Toxic | fold change (FC) [31]: 1.064

fold change (FC) [33]: 1.139
Compound: COc1ccc(CNc2nc(NCc3ccc(OC)cc3)c3ncn(C(C)C)c3n2)cc1 [MYOSEVERIN]
fold change (FC) [32]: 0

fold change (FC) [34]: 1.388
Compound: O=C1Nc2cc(Br)ccc2/C1=C1/Nc2ccccc2/C1=N\O [6BIO]
fold change (FC) [35]: 0.758

fold change (FC) [37]: 1.388
Compound: COC(=O)[C@H]1[C@H]2C[C@@H]3c4[nH]c5cc(OC)ccc5c4CCN3C[C@H]2C[C@@H](OC(=O)c2cc(OC)c(OC)c(OC)c2)[C@@H]1OC [RESERPINE]
fold change (FC) [36]: 0.758
